Measured values from ChEMBL document CHEMBL5365482, “Rational Design of Sulfonyl-γ-AApeptides as Highly Potent HIV-1 Fusion Inhibitors with Broad-Spectrum Activity” (J Med Chem, 2023).
pIC50: −log10 of the molar value.

Assays:
[1] = test system: Human immunodeficiency virus 1; test: Antiviral activity against HIV1 IIIB infected in human MT2 cells assessed as inhibition of viral growth incubated for 30 mins by ELISA assay; format: functional, organism-based; details: Human immunodeficiency virus 1, IIIB, MT2, 0.5 h
[2] = Cytotoxicity against human MT2 cells assessed as inhibition of cell growth measured after 3 days by CCK8 assay; format: toxicity, cell-based; details: time 3 day
[3] = Selectivity index, ratio of CC50 for human MT2 cells to IC50 for HIV1 IIIB infected in human MT2 cells; format: toxicity, cell-based; details: read-out: Ratio CC50/IC50

SMILES | pIC50 [1] | CC50 at 72 h [2] [µM] | selectivity ratio [3]
CC[C@@H](C)[C@@H](CN(CC(=O)N[C@@H](CCC(=O)O)CN(CC(=O)N[C@@H](CC(C)C)CN(CC(N)=O)S(=O)(=O)CC(C)C)S(=O)(=O)c1ccc(C(=O)O)cc1)S(=O)(=O)CC(C)C)NC(=O)CN(C[C@H](CCCCN)NC(=O)CN(C[C@H](Cc1ccc(O)cc1)NC(=O)CN(C[C@H](CCC(=O)O)NC(=O)CN(C[C@@H](NC(=O)CN(C[C@H](CCCCN)NC(=O)CN(C[C@H](Cc1c[nH]c2ccccc12)NC(=O)CN(C[C@H](CCC(=O)O)NC(=O)CN(C[C@H](Cc1c[nH]c2ccccc12)NC(=O)CN(C[C@H](CCSC)NC(C)=O)S(=O)(=O)CC(C)C)S(=O)(=O)CC(C)C)S(=O)(=O)c1ccc(C(=O)O)cc1)S(=O)(=O)CC(C)C)S(=O)(=O)CCN)[C@H](C)CC)S(=O)(=O)CC(C)C)S(C)(=O)=O)S(=O)(=O)CC(C)C)S(=O)(=O)CCN | < 4.40 | > 40 | –
CC[C@@H](C)[C@@H](CN(CC(=O)N[C@@H](CCC(=O)O)CN(CC(=O)N[C@@H](CC(C)C)CN(CC(N)=O)S(=O)(=O)CC(C)C)S(=O)(=O)c1ccc(C(=O)O)cc1)S(=O)(=O)CC(C)C)NC(=O)CN(C[C@H](CCCCN)NC(=O)CN(C[C@H](Cc1ccc(O)cc1)NC(=O)CN(C[C@H](CCC(=O)O)NC(=O)CN(C[C@@H](NC(=O)CN(C[C@H](CCCCN)NC(=O)CN(C[C@H](Cc1c[nH]c2ccccc12)NC(=O)CN(C[C@H](CCC(=O)O)NC(=O)CN(C[C@H](Cc1c[nH]c2ccccc12)NC(=O)CN(C[C@H](CCSC)NC(C)=O)S(C)(=O)=O)S(=O)(=O)CC(C)C)S(=O)(=O)c1ccc(C(=O)O)cc1)S(=O)(=O)CC(C)C)S(=O)(=O)CCN)[C@H](C)CC)S(=O)(=O)CC(C)C)S(=O)(=O)c1ccc(C(=O)O)cc1)S(=O)(=O)CC(C)C)S(=O)(=O)CCN | 4.41 | > 100 | > 2.5
CC[C@@H](C)[C@@H](CN(CC(=O)N[C@@H](CCC(=O)O)CN(CC(=O)N[C@@H](CC(C)C)CN(CC(N)=O)S(=O)(=O)CC(C)C)S(=O)(=O)c1ccc(C(=O)O)cc1)S(=O)(=O)CC(C)C)NC(=O)CN(C[C@H](CCCCN)NC(=O)CN(C[C@H](Cc1ccc(O)cc1)NC(=O)CN(C[C@H](CCC(=O)O)NC(=O)CN(C[C@@H](NC(=O)CN(C[C@H](CCCCN)NC(=O)CN(C[C@H](Cc1c[nH]c2ccccc12)NC(=O)CN(C[C@H](CCC(=O)O)NC(=O)CN(C[C@H](Cc1c[nH]c2ccccc12)NC(C)=O)S(=O)(=O)CC(C)C)S(=O)(=O)c1ccc(C(=O)O)cc1)S(=O)(=O)CC(C)C)S(=O)(=O)CCN)[C@H](C)CC)S(=O)(=O)CC(C)C)S(=O)(=O)c1ccc(C(=O)O)cc1)S(=O)(=O)CC(C)C)S(=O)(=O)CCN | < 4.00 | > 100 | –
CC[C@@H](C)[C@@H](CN(CC(=O)N[C@@H](CCC(=O)O)CN(CC(=O)N[C@@H](CC(C)C)CN(CC(=O)N[C@@H](CCCCN)CN(CC(=O)N[C@@H](CC(C)C)CN(CC(N)=O)S(=O)(=O)CC(C)C)S(=O)(=O)CCN)S(=O)(=O)CC(C)C)S(=O)(=O)c1ccc(C(=O)O)cc1)S(=O)(=O)CC(C)C)NC(=O)CN(C[C@H](CCCCN)NC(=O)CN(C[C@H](Cc1ccc(O)cc1)NC(=O)CN(C[C@H](CCC(=O)O)NC(=O)CN(C[C@@H](NC(=O)CN(C[C@H](CCCCN)NC(=O)CN(C[C@H](Cc1c[nH]c2ccccc12)NC(=O)CN(C[C@H](CCC(=O)O)NC(=O)CN(C[C@H](Cc1c[nH]c2ccccc12)NC(=O)CN(C[C@H](CCSC)NC(C)=O)S(=O)(=O)c1ccc(OC)cc1)S(=O)(=O)CC(C)C)S(=O)(=O)c1ccc(C(=O)O)cc1)S(=O)(=O)CC(C)C)S(=O)(=O)CCN)[C@H](C)CC)S(=O)(=O)CC(C)C)S(=O)(=O)c1ccc(C(=O)O)cc1)S(=O)(=O)CC(C)C)S(=O)(=O)CCN | 4.80 | > 100 | > 6.3
CC[C@@H](C)[C@@H](CN(CC(=O)N[C@@H](CCC(=O)O)CN(CC(=O)N[C@@H](CC(C)C)CN(CC(N)=O)S(=O)(=O)CC(C)C)S(=O)(=O)c1ccc(C(=O)O)cc1)S(=O)(=O)CC(C)C)NC(=O)CN(C[C@H](CCCCN)NC(=O)CN(C[C@H](Cc1ccc(O)cc1)NC(=O)CN(C[C@H](CCC(=O)O)NC(=O)CN(C[C@@H](NC(=O)CN(C[C@H](CCCCN)NC(=O)CN(C[C@H](Cc1c[nH]c2ccccc12)NC(=O)CN(C[C@H](CCC(=O)O)NC(=O)CN(C[C@H](Cc1c[nH]c2ccccc12)NC(=O)CN(C[C@H](CCSC)NC(C)=O)S(=O)(=O)CC(C)C)S(=O)(=O)CC(C)C)S(=O)(=O)c1ccc(C(=O)O)cc1)S(=O)(=O)CC(C)C)S(=O)(=O)CCN)[C@H](C)CC)S(=O)(=O)CC(C)C)S(=O)(=O)c1ccc(C(=O)O)cc1)S(C)(=O)=O)S(=O)(=O)CCN | < 4.00 | > 100 | –
CC[C@@H](C)[C@@H](CN(CC(=O)N[C@@H](CCC(=O)O)CN(CC(=O)N[C@@H](CC(C)C)CN(CC(N)=O)S(=O)(=O)CC(C)C)S(C)(=O)=O)S(=O)(=O)CC(C)C)NC(=O)CN(C[C@H](CCCCN)NC(=O)CN(C[C@H](Cc1ccc(O)cc1)NC(=O)CN(C[C@H](CCC(=O)O)NC(=O)CN(C[C@@H](NC(=O)CN(C[C@H](CCCCN)NC(=O)CN(C[C@H](Cc1c[nH]c2ccccc12)NC(=O)CN(C[C@@H](CCC(=O)O)NC(=O)CN(C[C@H](Cc1c[nH]c2ccccc12)NC(=O)CN(C[C@H](CCSC)NC(C)=O)S(=O)(=O)CC(C)C)S(=O)(=O)CC(C)C)S(C)(=O)=O)S(=O)(=O)CC(C)C)S(=O)(=O)CCN)[C@H](C)CC)S(=O)(=O)CC(C)C)S(C)(=O)=O)S(=O)(=O)CC(C)C)S(=O)(=O)CCN | < 4.00 | > 100 | –
CC[C@@H](C)[C@@H](CN(CC(=O)N[C@@H](CCC(=O)O)CN(CC(=O)N[C@@H](Cc1ccc(O)cc1)CN(CC(=O)N[C@@H](CCCCN)CN(CC(=O)N[C@H](CN(CC(=O)N[C@@H](CCC(=O)O)CN(CC(=O)N[C@@H](CC(C)C)CN(CC(N)=O)S(=O)(=O)CC(C)C)S(=O)(=O)c1ccc(C(=O)O)cc1)S(=O)(=O)CC(C)C)[C@H](C)CC)S(=O)(=O)CCN)S(=O)(=O)CC(C)C)S(=O)(=O)c1ccc(C(=O)O)cc1)S(=O)(=O)CC(C)C)NC(=O)CN(C[C@H](CCCCN)NC(=O)CN(C[C@@H](Cc1c[nH]c2ccccc12)NC(=O)CN(C[C@H](CCC(=O)O)NC(=O)CN(C[C@H](Cc1c[nH]c2ccccc12)NC(=O)CN(C[C@H](CCSC)NC(C)=O)S(=O)(=O)CC(C)C)S(=O)(=O)CC(C)C)S(C)(=O)=O)S(=O)(=O)CC(C)C)S(=O)(=O)CCN | < 4.40 | > 40 | –
CC[C@@H](C)[C@@H](CN(CC(=O)N[C@@H](CCC(=O)O)CN(CC(=O)N[C@H](CO)CN(CC(=O)N[C@@H](CCCCN)CN(CC(=O)N[C@H](CN(CC(=O)N[C@@H](CCC(=O)O)CN(CC(=O)N[C@@H](CC(C)C)CN(CC(N)=O)S(=O)(=O)CC(C)C)S(=O)(=O)c1ccc(C(=O)O)cc1)S(=O)(=O)CC(C)C)[C@H](C)CC)S(=O)(=O)CCN)S(=O)(=O)CC(C)C)S(=O)(=O)c1ccc(C(=O)O)cc1)S(=O)(=O)CC(C)C)NC(=O)CN(C[C@@H](CCCCN)NC(=O)CN(C[C@H](Cc1c[nH]c2ccccc12)NC(=O)CN(C[C@H](CCC(=O)O)NC(=O)CN(C[C@H](Cc1c[nH]c2ccccc12)NC(=O)CN(C[C@H](CCSC)NC(C)=O)S(=O)(=O)CC(C)C)S(=O)(=O)CC(C)C)S(=O)(=O)c1ccc(C(=O)O)cc1)S(=O)(=O)CC(C)C)S(=O)(=O)CCN | < 4.00 | > 100 | –
CC[C@H](C)[C@H](NC(=O)[C@H](CC(C)C)NC(=O)[C@H](CCC(=O)O)NC(=O)[C@H](CCC(=O)O)NC(=O)[C@@H](NC(=O)[C@H](CCCCN)NC(=O)[C@H](CCCCN)NC(=O)[C@@H](NC(=O)[C@H](Cc1ccc(O)cc1)NC(=O)[C@H](CCC(=O)O)NC(=O)[C@H](CCC(=O)O)NC(=O)[C@@H](NC(=O)[C@H](CCCCN)NC(=O)[C@H](CCCCN)NC(=O)[C@H](CC(=O)O)NC(=O)[C@H](Cc1cc2ccccc2[nH]1)NC(=O)[C@H](CCC(=O)O)NC(=O)[C@H](CCC(=O)O)NC(=O)[C@H](Cc1cc2ccccc2[nH]1)NC(=O)[C@@H](NC(=O)[C@H](CCSC)NC(C)=O)[C@@H](C)O)[C@@H](C)CC)[C@H](C)O)[C@@H](C)CC)C(=O)N[C@@H](CCCCN)C(=O)N[C@@H](CCCCN)C(=O)N[C@@H](CO)C(N)=O | 9.00 | – | –
CC[C@@H](C)[C@@H](CN(CC(=O)N[C@@H](CCC(=O)O)CN(CC(=O)N[C@@H](CC(C)C)CN(CC(=O)N[C@@H](CCCCN)CN(CC(=O)N[C@@H](C)CN(CC(=O)N[C@@H](CCC(=O)O)CN(CC(=O)N[C@@H](CCCCN)CN(CC(=O)N[C@@H](CCCCN)CN(CC(=O)N[C@@H](CCC(=O)O)CN(CC(=O)N[C@@H](CCC(=O)O)CN(CC(=O)N[C@@H](CC(C)C)CN(CC(=O)N[C@@H](CCCCN)CN(CC(N)=O)S(=O)(=O)CCN)S(=O)(=O)CC(C)C)S(=O)(=O)c1ccc(C(=O)O)cc1)S(=O)(=O)c1ccc(C(=O)O)cc1)S(=O)(=O)CCN)S(=O)(=O)CCN)S(=O)(=O)c1ccc(C(=O)O)cc1)S(C)(=O)=O)S(=O)(=O)CCN)S(=O)(=O)CC(C)C)S(=O)(=O)c1ccc(C(=O)O)cc1)S(=O)(=O)CC(C)C)NC(C)=O | < 4.40 | > 40 | –
CC[C@@H](C)[C@@H](CN(CC(=O)N[C@@H](CCC(=O)O)CN(CC(=O)N[C@@H](CC(C)C)CN(CC(N)=O)S(=O)(=O)CC(C)C)S(C)(=O)=O)S(=O)(=O)CC(C)C)NC(=O)CN(C[C@H](CCCCN)NC(=O)CN(C[C@H](Cc1ccc(O)cc1)NC(=O)CN(C[C@H](CCC(=O)O)NC(=O)CN(C[C@@H](NC(=O)CN(C[C@H](CCCCN)NC(=O)CN(C[C@H](Cc1c[nH]c2ccccc12)NC(=O)CN(C[C@H](CCC(=O)O)NC(=O)CN(C[C@H](Cc1c[nH]c2ccccc12)NC(=O)CN(C[C@H](CCSC)NC(C)=O)S(=O)(=O)CC(C)C)S(=O)(=O)CC(C)C)S(=O)(=O)c1ccc(C(=O)O)cc1)S(=O)(=O)CC(C)C)S(=O)(=O)CCN)[C@H](C)CC)S(=O)(=O)CC(C)C)S(=O)(=O)c1ccc(C(=O)O)cc1)S(=O)(=O)CC(C)C)S(=O)(=O)CCN | < 4.40 | > 40 | –
